Literature values, collected in patent US20140100272A1, “METHODS OF ADMINISTERING COMPOSITIONS COMPRISING DOCOSAPENTAENOIC ACID” (Matinas BioPharma, Inc., priority 2012, published 2014).

Details: in vivo

absorbed at rates: about 30%
SMILES: CC[C@H](C)C(=O)O[C@H]1C[C@@H](C)C=C2C=C[C@H](C)[C@H](CC[C@@H]3C[C@@H](O)CC(=O)O3)[C@H]21 [lovastatin]
